44 compounds from ChEMBL document CHEMBL2434949, “Evaluation of licorice flavonoids as protein tyrosine phosphatase 1B inhibitors” (Bioorg Med Chem Lett, 2013) can be followed below.

The source made the active and inactive calls. The calls are words filed in the database; no cut-off is given here.

For assay [1], the target named is T1, Tyrosine-protein phosphatase non-receptor type 1 (Homo sapiens) (UniProt P18031).
T1 sequence (whole entry): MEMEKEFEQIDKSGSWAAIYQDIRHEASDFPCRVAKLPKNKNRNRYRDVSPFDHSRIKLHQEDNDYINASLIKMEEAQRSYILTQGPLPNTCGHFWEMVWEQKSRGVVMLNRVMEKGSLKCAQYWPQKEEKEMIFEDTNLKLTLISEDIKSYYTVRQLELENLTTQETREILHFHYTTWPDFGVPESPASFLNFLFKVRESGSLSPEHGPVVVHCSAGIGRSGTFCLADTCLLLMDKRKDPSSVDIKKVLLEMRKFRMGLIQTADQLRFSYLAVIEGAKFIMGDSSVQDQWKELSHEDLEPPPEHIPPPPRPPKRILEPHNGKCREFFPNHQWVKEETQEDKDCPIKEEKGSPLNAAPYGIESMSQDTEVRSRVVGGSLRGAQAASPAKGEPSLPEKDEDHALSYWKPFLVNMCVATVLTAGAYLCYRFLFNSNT
Briefly: Inhibition of PTP1B (unknown origin) using p-nitrophenyl phosphate as substrate at 100 uM.

In assay [2] the target is T2, Tyrosine-protein phosphatase non-receptor type 1 (Homo sapiens, UniProt P18031).
T2 sequence (P18031 whole entry): T1 sequence (whole entry)
Briefly: Inhibition of PTP1B (unknown origin) using p-nitrophenyl phosphate as substrate.

Assay [3] concerns the target T3, Tyrosine-protein phosphatase non-receptor type 2 (Homo sapiens) (UniProt P17706).
T3 sequence (whole entry): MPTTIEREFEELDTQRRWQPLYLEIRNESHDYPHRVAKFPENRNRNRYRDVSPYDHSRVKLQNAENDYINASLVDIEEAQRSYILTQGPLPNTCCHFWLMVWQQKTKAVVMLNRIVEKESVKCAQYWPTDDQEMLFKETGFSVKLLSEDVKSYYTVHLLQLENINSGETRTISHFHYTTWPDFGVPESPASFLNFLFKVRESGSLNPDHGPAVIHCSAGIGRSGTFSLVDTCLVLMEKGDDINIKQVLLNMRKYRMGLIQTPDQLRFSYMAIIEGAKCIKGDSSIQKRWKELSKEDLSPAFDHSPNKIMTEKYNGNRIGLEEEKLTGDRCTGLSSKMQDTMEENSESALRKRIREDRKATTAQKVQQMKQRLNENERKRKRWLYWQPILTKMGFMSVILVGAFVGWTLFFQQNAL
Briefly: Inhibition of TCPTP (unknown origin) at 100 uM.

Assay [4] addresses Dual specificity protein phosphatase 3 (Homo sapiens) (UniProt P51452). Description: Inhibition of VHR (unknown origin) at 100 uM.
Assay [5] addresses T1, Tyrosine-protein phosphatase non-receptor type 1 (Homo sapiens). Briefly: Non-competitive inhibition of PTP1B (unknown origin) using p-nitrophenyl phosphate as substrate by Lineweaver-Burk plot analysis.
Assay [6] shares this target. Briefly: Inhibition of PTP1B in human HepG2 cells assessed as increase of insulin-induced Akt phosphorylation at Ser473 at 20 to 100 uM after 5 mins by Western blotting. It is filed as cell-based. Background: Immunoblotting shows a protein as a band on a membrane.
Assay [7] has the same target.
Description: Competitive inhibition of PTP1B (unknown origin) using p-nitrophenyl phosphate as substrate by Lineweaver-Burk plot analysis
Assay [8] shares this target. Description: Mixed type inhibition of PTP1B (unknown origin) using p-nitrophenyl phosphate as substrate by Lineweaver-Burk plot analysis.

By inhibition is commonly meant the relative decrease from the control value, in per cent. The IC50 is the midpoint of a concentration-inhibition curve. A higher IC50 goes with weaker potency.

Dual specificity protein phosphatase 3 (Homo sapiens), sequence (P51452 whole entry, looked up): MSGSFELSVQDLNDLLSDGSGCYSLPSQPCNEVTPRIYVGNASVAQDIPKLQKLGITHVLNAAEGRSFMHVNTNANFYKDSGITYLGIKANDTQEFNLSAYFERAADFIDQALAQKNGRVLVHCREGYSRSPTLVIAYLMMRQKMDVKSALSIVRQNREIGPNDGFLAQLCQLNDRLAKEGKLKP

For the compound `O=c1cc(-c2ccc(O)cc2)oc2c([C@@H]3O[C@H](CO)[C@@H](O)[C@H](O)[C@H]3O)c(O)c([C@@H]3OC[C@H](O)[C@H](O)[C@H]3O)c(O)c12`, the inhibition in assay [1] is under 50%.

In turn, `CC1(C)C=Cc2c(ccc(-c3coc4cc(O)ccc4c3=O)c2O)O1` [GLABRONE] came in with an IC50 in assay [2] of 66.3 µM. `CC(C)=CCc1c(O)ccc2c1O[C@H](c1ccc3c(c1)CC(O)C(C)(C)O3)CC2=O` (some centres undefined): in assay [2], the IC50 stood at 52.2 µM. `CC(C)=CCc1cc(C(=O)C2(c3cc(O)c(O)cc3/C=C3\Oc4c(ccc(O)c4CC=C(C)C)C3=O)Oc3cc(O)c(CC=C(C)C)cc3C2=O)ccc1O` (centres undefined) [LICOAGRONE]: the inhibition is 4% in assay [3] and over 70% in assay [4]. For the same compound, the IC50 in assay [2] stood at 6 µM. Further, the Kiuc in assay [5] is 6.3 µM. For the same compound, the outcome in assay [6] was Active.

On to `COc1c(CC=C(C)C)c(O)cc(O)c1-c1oc2cc(O)ccc2c1C`, for which the inhibition came to 4% in assay [3] and 35% in assay [4]. In assay [2], `CC(C)=CCc1cc([C@H]2Oc3c(ccc(O)c3CC=C(C)C)C(=O)[C@@H]2O)ccc1O` had an IC50 of 75.1 µM.

In the case of `CC1(C)C=Cc2cc([C@@H]3CC(=O)c4ccc5c(c4O3)C=CC(C)(C)O5)ccc2O1`, the inhibition in assay [1] was under 50%. `COc1ccc(-c2coc3cc(O)c(OC)cc3c2=O)cc1O` [ODORATIN]: 70 µM corresponded to half-maximal inhibition in assay [2] (IC50). Still for that read-out and setting: next, `CC(C)=CCc1cc([C@@H]2CC(=O)c3c(O)cc(O)c(CC=C(C)C)c3O2)ccc1O` [LESPEDEZAFLAVANONE B]: 62.4 µM.

Turning to `COc1c(/C=C/C(=O)c2ccc(O)c(O)c2)ccc(O)c1CC=C(C)C`, in assay [2], the IC50 turned out to be 59.5 µM. Turning to `CC(C)=CCc1c(O)ccc2c1O[C@H](c1ccc3c(c1)C=CC(C)(C)O3)CC2=O`, in assay [1], the inhibition is under 50%. Turning to `COc1ccc2c(c1)O[C@H]1c3ccc(O)c(CC=C(C)C)c3OC[C@@H]21`, the inhibition in assay [1] was under 50%. Take `COc1cc(O)cc2occ(-c3cc(O)c(O)c(CC=C(C)C)c3)c(=O)c12`: the inhibition in assay [3] is 4%; in assay [4], over 70%.

Consider `CC1(C)C=Cc2cc(C(=O)CC(=O)c3ccc(O)cc3)c(O)cc2O1`, for which the inhibition in assay [1] is under 50%. On the same count and under the same terms, to `COc1ccc(-c2coc3cc(O)c(OC)cc3c2=O)cc1` belongs under 50%.

`COc1c(/C=C/C(=O)c2ccc(O)cc2)ccc(O)c1CC=C(C)C` had an IC50 in assay [2] of 57 µM. In assay [1], `CC1(C)C=Cc2c(ccc3c2OC[C@@H](c2ccc(O)c4c2OC(C)(C)C=C4)C3)O1` returned an inhibition of under 50%. With `COc1c(/C=C/C(=O)c2ccc(O)cc2)ccc(O)c1O`, the inhibition in assay [1] was under 50%. The same measure, in the same setting: next, `COc1cc(O)ccc1/C=C/C(=O)c1ccc(O)cc1`: under 50%. Consider `COc1c(/C=C/C(=O)c2ccc(O)cc2)ccc2c1CC(C(C)(C)O)O2` (centres undefined), for which the inhibition in assay [1] is under 50%.

Regarding `CC1(C)C=Cc2cc(/C=C/C(=O)c3ccc(O)cc3O)ccc2O1`, in assay [2], the IC50 is 44.3 µM.

For `O=C1C[C@@H](c2ccc(O[C@@H]3O[C@H](CO)[C@@H](O)[C@H](O)[C@H]3O)cc2)Oc2cc(O)ccc21`, the inhibition in assay [1] is under 50%. Same read-out and setting: to `O=C(/C=C/c1ccc(O[C@@H]2O[C@H](CO)[C@@H](O)[C@H](O)[C@H]2O)cc1)c1ccc(O)cc1O` belongs under 50%. For the compound `CC(C)=CCc1cc(C(=O)CC(=O)c2cc(CC=C(C)C)c(O)cc2O)ccc1O`, the IC50 in assay [2] came to 32.6 µM. On to `CC(C)=CCc1cc(-c2cc(=O)c3ccc(O)cc3o2)ccc1O`, for which, in assay [1], the inhibition was under 50%. `O=c1c(O[C@@H]2O[C@H](CO)[C@@H](O)[C@H](O)[C@H]2O)c(-c2ccc(O)cc2)oc2cc(O)cc(O)c12` yielded an inhibition in assay [1] of under 50%. Take `CC(C)=CCc1c(O)ccc2c1O/C(=C\c1ccc(O)c(O)c1)C2=O` [LICOAGROAURONE]: the values for the inhibition in assay [3] and in assay [4] were 4% and 50%, respectively. In assay [7], this compound came in with a Kic of 24 µM. The compound further yielded an IC50 in assay [2] of 23.9 µM.

As for `CC(C)=CCc1cc([C@@H]2CC(=O)c3ccc(O)cc3O2)ccc1O`, the inhibition in assay [1] was under 50%. As for `CC(C)=CCc1cc([C@]23Oc4cc(O)c(CC=C(C)C)cc4C(=O)[C@H]2[C@H]2c4ccc(O)cc4O[C@@H]4Oc5c(ccc(O)c5CC=C(C)C)[C@@]42O3)ccc1O` [LICOAGRODIN], the inhibition in assay [3] stood at 4%; in assay [4], 50%. In assay [2], the IC50 amounted to 11.5 µM. For the same compound, the inhibition result in assay [8] is “Active”. `O=C1C[C@@H](c2ccc(O)cc2)Oc2cc(O)ccc21`: the inhibition in assay [1] was under 50%.

`CC1(C)C=Cc2c(ccc3c2OC[C@@H](c2ccc(O)cc2O)C3)O1` [GLABRIDIN] returned an IC50 in assay [2] of 73.4 µM.

`CC(C)=CCc1c(O)ccc2c1oc(=O)c1c3ccc(O)cc3oc21` had an inhibition in assay [1] of under 50%. In turn, `CC1(C)C=Cc2c(ccc(C(=O)/C=C/c3ccc(O)cc3)c2O)O1` had an IC50 in assay [2] of 74.1 µM. Regarding `CCCCCCCCCCCCCCCC(=O)C1=C(O)[C@@H](CO)OC1=O`, in assay [2], the IC50 is 4.6 µM.

For `COc1ccc([C@@H]2COc3c(ccc4c3C=CC(C)(C)O4)C2)c(O)c1`, the inhibition in assay [1] was under 50%.

As to `O=c1cc(-c2ccc(O)cc2)oc2cc(O)ccc12`, the inhibition in assay [1] is under 50%. Turning to `COc1c([C@H]2c3c(cc(O)c(O)c3OC)C=C(C(=O)c3ccc(O)cc3)[C@H]2C(=O)c2ccc(O)cc2)ccc(O)c1O` (relative stereo), the IC50 in assay [2] is 36.2 µM. Regarding `COc1cc(O[C@@H]2O[C@H](CO)[C@@H](O)[C@H](O)[C@H]2O)c(-c2coc3cc(O)c(OC)cc3c2=O)cc1O`, the inhibition in assay [1] is under 50%.

Turning to `CC(C)=CCc1cc(C[C@@H](O)C(=O)c2cc(CC=C(C)C)c(O)cc2O)ccc1O`, in assay [2], the IC50 came to 90.5 µM.

The compound `CC(C)=CCc1c(O)ccc2c1O[C@H](c1ccc3c(c1)C(O)C(O)C(C)(C)O3)CC2=O` (some centres undefined) registered an inhibition in assay [1] of under 50%. The same measure, in the same setting: to `O=c1c(O[C@@H]2O[C@H](CO)[C@@H](O)[C@H](O)[C@H]2O)c(-c2ccc(O)c(O)c2)oc2cc(O)cc(O)c12` belongs under 50%; to `O=c1cc(-c2ccc(O)cc2)oc2c([C@@H]3O[C@H](CO)[C@@H](O)[C@H](O)[C@H]3O)c(O)c([C@@H]3O[C@H](CO)[C@@H](O)[C@H](O)[C@H]3O)c(O)c12`, under 50%. For `CC(C)=CCc1c(O)ccc(C(=O)/C=C/c2ccc(O)cc2)c1O` [ISOBAVACHALCONE], the inhibition was 4% in assay [3] and over 70% in assay [4]. The same compound yielded an IC50 in assay [2] of 27.3 µM. Also, the inhibition result in assay [8] is “Active”. Compound `CC(C)=CCc1cc([C@@H]2CC(=O)c3ccc(O)c(CC=C(C)C)c3O2)ccc1O` [GLABROL] displayed an IC50 in assay [2] of 37.5 µM.
